# Experimental data reported in paper PMC8270262 (Molecules, 2021).
# Entries after “also recorded” stand apart in the source; their conditions may differ.
# What was measured:
# SARS-CoV-2 PL^pro = SARS-CoV-2 PL^pro (Severe acute respiratory syndrome coronavirus 2, UniProt P0DTD1); assay: biochemical
# WNF protease = conditions: cited from earlier work
# DENV protease = conditions: enzyme concentration 1 μM; cited from earlier work
Compound,Effect of reducing agent on PLpro inhibition (in words) (SARS-CoV-2 PL^pro),IC50 (SARS-CoV-2 PL^pro) [µM],IC50 (WNF protease) [µM],IC50 (DENV protease) [µM]
CCN(CC)C(=S)SSC(=S)N(CC)CC [Antabuse],significantly increases the IC50 values,–,–,–
"Sc1ncnc2nc[nH]c12 [6-MP, 6-mercaptopurine]",–,~66,–,–
"Sc1ncc2[nH]cnc2n1 [2-MP, 2-mercaptopurine]",diminished; also recorded: significantly increases the IC50 values,0.82 ± 0.6,–,–
Aprotinin,–,–,0.02,0.065
